PubChem BioAssay (NCI)
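Five compound concentrations were applied to cells in 96-well plates for 48 hours; endpoints were derived by simple linear interpolation of the resulting dose-response curve. TGI denotes the concentration required for complete inhibition of growth.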

Tests used:
Assay in all cases: DTP human tumour cell line panel, 48 h
COLO 205 colon = test system: COLO 205 colon
HOP-62 NSCLC = test system: HOP-62 NSCLC
HOP-92 NSCLC = test system: HOP-92 NSCLC
KM12 colon = test system: KM12 colon
MALME-3M melanoma = test system: MALME-3M melanoma
MDA-MB-435 = test system: MDA-MB-435
NCI-H226 lung = test system: NCI-H226 lung
OVCAR-3 ovarian = test system: OVCAR-3 ovarian
SF-295 CNS = test system: SF-295 CNS
SK-MEL-28 melanoma = test system: SK-MEL-28 melanoma
SW-620 colon = test system: SW-620 colon

SMILES	TGI (COLO 205 colon) [µM]	TGI (HOP-62 NSCLC) [µM]	TGI (HOP-92 NSCLC) [µM]	TGI (KM12 colon) [µM]	TGI (MALME-3M melanoma) [µM]	TGI (MDA-MB-435) [µM]	TGI (NCI-H226 lung) [µM]	TGI (OVCAR-3 ovarian) [µM]	TGI (SF-295 CNS) [µM]	TGI (SK-MEL-28 melanoma) [µM]	TGI (SW-620 colon) [µM]
CCOc1ccc(NC(=O)C(=O)C(/C(=N/N)C(=O)OC)c2nc3ccc([N+](=O)[O-])cc3[nH]c2=O)cc1 (stereo unspecified)	> 100	> 100	> 100	> 100	> 100	> 100	> 100	> 100	> 100	> 100	> 100
CCN(C(=O)N[C@@H](CC(C)C)C(=O)NCC(=O)OC)c1ccccc1	> 100	> 100	> 100	> 100	51.1	> 100	> 100	> 100	> 100	> 100	> 100
O=C(OC1OC2COC(=O)c3cc(O)c(O)c(O)c3-c3c(cc(O)c(O)c3O)C(=O)OC3C2OC(=O)[C@@]24CC(=O)[C@@](O)(OC25C(=O)O[C@H]2[C@@H](O)CO[C@@]25O)C2(O)Oc5c(O)c(O)cc(c5C24)C(=O)OC13)c1cc(O)c(O)c(O)c1 (stereo partly specified)	> 100	> 100	> 100	68.6	> 100	33	> 100	> 100	> 100	> 100	> 100
C[C@H]1CCC/C=C/[C@@H]2C[C@H](OC(=O)CN(C)C)C[C@H]2[C@H](O)/C=C/C(=O)O1	0.0997	> 100	> 56.1	0.235	0.15	> 100	0.133	> 26.8	> 100	> 30.9	4.53
COC(=O)c1c(C)cccc1C1CN=NC12Cc1cc(C)c(C)cc1C2=O (stereo unspecified)	> 100	> 100	> 100	> 100	> 100	> 100	> 100	> 100	> 100	> 100	> 100
O=C1C(Cl)=CC2(C=C1Cl)CCN=c1c(O)c3c(c(O)c12)=NC=N3	46.7	> 100	> 100	> 100	43.4	32.7	> 100	89.1	> 100	> 100	> 100
